Measured values from patent US20250345512A1, “COMBINATION SODIUM-GLUCOSE COTRANSPORTER INHIBITOR (SGLTI) INSULIN THERAPY FOR GLYCEMIC CONTROL IN TYPE 1 DIABETES” (University of Virginia Patent Foundation, priority 2022, published 2025).

Test system: participants with T1D
Set-up: species or system human
Conditions: in vivo
Method: FIG. 2 presents a study analysis relative to baseline, control IQ (CIQ) (e.g., AID), and basal IQ (BIQ) (e.g., PLGS) implementation, according to investigation that is demonstrable of one or more embodiments herein. Therein, an experimental arm (G1, G2) providing an initial daily dose of 5 mg empagliflozin (EMPA) is depicted against a control arm (G3, G4) without such dosing (NOEMPA). Relative characteristics of the analysis are provided below.
Study Design: A single-center, randomized, controlled, unblinded, crossover clinical trial (NCT04201496) compared four parallel groups, two groups in the experimental arm (EMPA) with 5 mg daily empagliflozin as adjunctive therapy to PLGS or AID, and two groups in the control arm (NOEMPA) with no drug and with a PLGS system (Basal-IQ, Tandem Diabetes Care) or AID system (Control-IQ, Tandem Diabetes Care). […] A tolerance to the medication was assessed prior to the starting of the next study phase, including adherence to the protocol, ketone testing 2-4 times per day with monitored values not greater than 0.6 mmol/L on at least two successive occasions (the first testing upon waking in a fasted state), no adverse events relating to perineal infection or symptomatic postural hypotension, and no evidence of significant hypoglycemia <54 mg/dL, or any other listed adverse effects of the medication. […]

OC[C@H]1O[C@@H](c2ccc(Cl)c(Cc3ccc(O[C@H]4CCOC4)cc3)c2)[C@H](O)[C@@H](O)[C@@H]1O [CIQ-EMPA, empagliflozin]
Difference (95% CI): Ketones: 0.02 mmol/L
